Assays:
Adenosine receptor A3 = target: T1, Adenosine receptor A3 (Homo sapiens, UniProt P0DMS8); test: biochemical
T1 sequence (P0DMS8 whole entry): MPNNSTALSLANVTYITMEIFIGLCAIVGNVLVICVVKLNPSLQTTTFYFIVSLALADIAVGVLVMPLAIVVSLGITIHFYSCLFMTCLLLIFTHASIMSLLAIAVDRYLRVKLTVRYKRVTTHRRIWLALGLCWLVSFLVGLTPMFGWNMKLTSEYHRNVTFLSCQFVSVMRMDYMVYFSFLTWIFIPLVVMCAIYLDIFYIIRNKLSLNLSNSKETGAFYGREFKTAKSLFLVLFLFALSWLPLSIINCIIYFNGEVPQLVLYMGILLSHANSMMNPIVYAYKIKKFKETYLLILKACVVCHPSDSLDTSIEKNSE

Adenosine receptor A2a [1] = target: T2, Adenosine receptor A2a (Homo sapiens, UniProt P29274); test: Displacement of [3H]CGS21680 from human adenosine A2A receptor expressed in CHO cells at 1 uM; type: cell-based
Adenosine receptor A1 [2] = target: T3, Adenosine receptor A1 (Homo sapiens, UniProt P30542); test: biochemical
T3 sequence (P30542 whole entry): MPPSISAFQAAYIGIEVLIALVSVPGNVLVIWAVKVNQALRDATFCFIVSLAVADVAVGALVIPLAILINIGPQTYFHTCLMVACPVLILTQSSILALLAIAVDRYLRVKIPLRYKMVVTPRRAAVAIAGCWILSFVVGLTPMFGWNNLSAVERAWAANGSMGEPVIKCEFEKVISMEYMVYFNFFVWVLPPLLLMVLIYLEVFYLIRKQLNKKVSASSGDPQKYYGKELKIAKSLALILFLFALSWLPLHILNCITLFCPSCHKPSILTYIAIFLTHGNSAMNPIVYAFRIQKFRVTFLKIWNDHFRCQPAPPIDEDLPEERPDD

[3] = target: T4, Adenosine receptor A1 (Homo sapiens) (UniProt P30542); test: Displacement of [3H]R-PIA from human adenosine A1 receptor expressed in CHO cells at 1 uM; type: cell-based
T4 sequence (whole entry): T3 sequence (P30542 whole entry)

Adenosine receptor A2a [4] = target: T2, Adenosine receptor A2a; test: biochemical
Adenosine receptor A1 [5] = target: T3, Adenosine receptor A1
Adenosine receptor A2a [6] = target: T2, Adenosine receptor A2a

T2 sequence (P29274 whole entry): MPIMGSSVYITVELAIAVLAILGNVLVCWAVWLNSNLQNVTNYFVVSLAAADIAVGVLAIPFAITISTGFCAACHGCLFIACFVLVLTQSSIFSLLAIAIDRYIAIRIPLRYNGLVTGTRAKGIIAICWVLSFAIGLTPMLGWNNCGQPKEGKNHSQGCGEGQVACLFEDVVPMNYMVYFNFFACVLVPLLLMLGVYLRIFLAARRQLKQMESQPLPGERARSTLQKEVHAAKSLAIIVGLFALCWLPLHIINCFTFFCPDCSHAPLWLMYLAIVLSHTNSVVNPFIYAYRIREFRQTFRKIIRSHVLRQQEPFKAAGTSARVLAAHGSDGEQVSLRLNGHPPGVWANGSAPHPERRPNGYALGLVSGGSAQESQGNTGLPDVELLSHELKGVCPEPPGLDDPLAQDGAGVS

In the case of Cc1cccc(CNC(=O)[C@H]2S[C@@H](n3cnc4c(NCc5cccc(I)c5)ncnc43)[C@H](O)[C@@H]2O)c1, the Ki (Adenosine receptor A3) is reported as 94.9 nM, the inhibition (Adenosine receptor A2a [1]) is reported as 37% and the Ki (Adenosine receptor A1 [2]) is reported as 4070 nM.

O=C(NCc1cccc(Cl)c1)[C@H]1S[C@@H](n2cnc3c(NCc4cccc(I)c4)ncnc32)[C@H](O)[C@@H]1O gave an inhibition [3] of 25%, a Ki (Adenosine receptor A3) of 144 nM and an inhibition (Adenosine receptor A2a [1]) of 26%.

For O=C(NC(c1ccccc1)c1ccccc1)[C@H]1S[C@@H](n2cnc3c(NCc4cccc(I)c4)ncnc32)[C@H](O)[C@@H]1O, the inhibition [3] was 17% and the Ki (Adenosine receptor A3) was 116 nM.

CNc1ncnc2c1ncn2[C@@H]1S[C@H](C(=O)NC2CCC2)[C@@H](O)[C@H]1O gave a Ki (Adenosine receptor A3) of 1.04 nM, a Ki (Adenosine receptor A1 [2]) of 6.27 nM and a Ki (Adenosine receptor A2a [4]) of 108 nM.

Compound COc1ccccc1CNC(=O)[C@H]1S[C@@H](n2cnc3c(NCc4cccc(I)c4)ncnc32)[C@H](O)[C@@H]1O has an inhibition [3] of 34%, a Ki (Adenosine receptor A3) of 97 nM and an inhibition (Adenosine receptor A2a [1]) of 23%.

Work on O=C(NC1CC1)[C@H]1S[C@@H](n2cnc3c(NCc4cccc(I)c4)ncnc32)[C@H](O)[C@@H]1O yielded a Ki (Adenosine receptor A3) of 3.03 nM and a Ki (Adenosine receptor A2a [4]) of 15.2 nM.

Cc1ccccc1CNC(=O)[C@H]1S[C@@H](n2cnc3c(NCc4cccc(I)c4)ncnc32)[C@H](O)[C@@H]1O showed an inhibition [3] of 18%, a Ki (Adenosine receptor A3) of 31 nM and an inhibition (Adenosine receptor A2a [1]) of 31%.

CNc1ncnc2c1ncn2[C@@H]1S[C@H](C(=O)NCC2CC2)[C@@H](O)[C@H]1O gave a Ki (Adenosine receptor A3) of 1.35 nM, an inhibition (Adenosine receptor A2a [1]) of 45% and a Ki (Adenosine receptor A1 [2]) of 33.1 nM.

With Cc1ccc(CNC(=O)[C@H]2S[C@@H](n3cnc4c(NCc5cccc(I)c5)ncnc43)[C@H](O)[C@@H]2O)cc1 the inhibition [3] was 15%, the Ki (Adenosine receptor A3) was 135 nM and the inhibition (Adenosine receptor A2a [1]) was 28%.

CNc1ncnc2c1ncn2[C@@H]1S[C@H](C(=O)NC2CCCC2)[C@@H](O)[C@H]1O showed a Ki (Adenosine receptor A3) of 0.97 nM, an inhibition (Adenosine receptor A2a [1]) of 27% and a Ki (Adenosine receptor A1 [2]) of 48.6 nM.

CCNC(=O)[C@H]1S[C@@H](n2cnc3c(NCc4cccc(I)c4)ncnc32)[C@H](O)[C@@H]1O was tested, and the Ki (Adenosine receptor A3) was 0.42 nM, the Ki (Adenosine receptor A1 [2]) was 5.4 nM and the Ki (Adenosine receptor A2a [4]) was 57.6 nM.

O=C(NC1CCC1)[C@H]1S[C@@H](n2cnc3c(NCc4cccc(I)c4)ncnc32)[C@H](O)[C@@H]1O gave a Ki (Adenosine receptor A3) of 1.17 nM, a Ki (Adenosine receptor A1 [2]) of 23.6 nM and a Ki (Adenosine receptor A2a [4]) of 122 nM.

O=C(NCCc1ccccc1)[C@H]1S[C@@H](n2cnc3c(NCc4cccc(I)c4)ncnc32)[C@H](O)[C@@H]1O gave an inhibition [3] of 20%, a Ki (Adenosine receptor A3) of 433 nM and an inhibition (Adenosine receptor A2a [1]) of 38%.

Compound O=C(NC1CCCCC1)[C@H]1S[C@@H](n2cnc3c(NCc4cccc(I)c4)ncnc32)[C@H](O)[C@@H]1O has an inhibition [3] of 28%, a Ki (Adenosine receptor A3) of 35.4 nM and an inhibition (Adenosine receptor A2a [1]) of 35%.

For O=C(NCC1CC1)[C@H]1S[C@@H](n2cnc3c(NCc4cccc(I)c4)ncnc32)[C@H](O)[C@@H]1O, the Ki (Adenosine receptor A3) was 2.16 nM, the Ki (Adenosine receptor A1 [2]) was 159 nM and the Ki (Adenosine receptor A2a [4]) was 1600 nM.

CNc1ncnc2c1ncn2[C@@H]1S[C@H](C(=O)NC2CC2)[C@@H](O)[C@H]1O was tested, and the Ki (Adenosine receptor A3) was 2.16 nM, the Ki (Adenosine receptor A1 [2]) was 6.58 nM and the Ki (Adenosine receptor A2a [4]) was 161 nM.

Compound CNC(=O)[C@H]1S[C@@H](n2cnc3c(NC)ncnc32)[C@H](O)[C@@H]1O has a Ki (Adenosine receptor A3) of 1.19 nM, an inhibition (Adenosine receptor A2a [1]) of 20% and a Ki (Adenosine receptor A1 [2]) of 69.5 nM.

In the case of CNC(=O)[C@H]1S[C@@H](n2cnc3c(NCc4cccc(I)c4)ncnc32)[C@H](O)[C@@H]1O, the Ki (Adenosine receptor A1 [5]) is reported as 20.2 nM and the Ki (Adenosine receptor A2a [6]) is reported as 475 nM.

CCOc1ccccc1CNC(=O)[C@H]1S[C@@H](n2cnc3c(NCc4cccc(I)c4)ncnc32)[C@H](O)[C@@H]1O gave an inhibition [3] of 12%, a Ki (Adenosine receptor A3) of 113 nM and an inhibition (Adenosine receptor A2a [1]) of 20%.

O=C(NCc1cccc2ccccc12)[C@H]1S[C@@H](n2cnc3c(NCc4cccc(I)c4)ncnc32)[C@H](O)[C@@H]1O gave an inhibition [3] of 20%, a Ki (Adenosine receptor A3) of 1200 nM and an inhibition (Adenosine receptor A2a [1]) of 11%.

With CCNC(=O)[C@H]1S[C@@H](n2cnc3c(NC)ncnc32)[C@H](O)[C@@H]1O the Ki (Adenosine receptor A3) was 0.97 nM, the inhibition (Adenosine receptor A2a [1]) was 38% and the Ki (Adenosine receptor A1 [2]) was 4.83 nM.

O=C(NCc1cccc(F)c1)[C@H]1S[C@@H](n2cnc3c(NCc4cccc(I)c4)ncnc32)[C@H](O)[C@@H]1O gave an inhibition [3] of 25%, a Ki (Adenosine receptor A3) of 61.1 nM and an inhibition (Adenosine receptor A2a [1]) of 44%.

Work on CNc1ncnc2c1ncn2[C@@H]1S[C@H](C(=O)NCc2cccc(I)c2)[C@@H](O)[C@H]1O yielded an inhibition [3] of 24%, a Ki (Adenosine receptor A3) of 15.6 nM and an inhibition (Adenosine receptor A2a [1]) of 24%.

— ChEMBL document CHEMBL1153082, “Design and synthesis of N(6)-substituted-4'-thioadenosine-5'-uronamides as potent and selective human A(3) adenosine receptor agonists” (Bioorg Med Chem, 2009)
